Measurements taken from patent US4652548A (Eli Lilly and Company, priority 1984, dated 1987).

Columns and labels:
[1] = tested on: fasting Type II diabetic patients; experiment: Subcutaneous administration to fasting Type II diabetic patients: plasma glucose; format: in vivo, human
[2] = tested on: hepatic glucose production; experiment: Subcutaneous administration to Type II diabetic subjects: hepatic glucose production; format: in vivo, human; conditions: 0.2 U/kg s.c.
[3] = tested on: peripheral glucose uptake; experiment: Kinetics of activation and deactivation of effect on peripheral glucose uptake; format: in vivo, human
Source text: Marked differences between the two hormones were noted when biologic activity was studied.
(§1) At this point, the hormone infusion was abruptly stopped, and the glucose concentration was maintained constant until the biologic effects of the infused hormone were no longer detectable.

[4] = after stopping 5 hour infusion
Source text: as §1

[5] = Euglycemic glucose-clamp: steady state serum hormone levels; format: in vivo, human
Procedure: (§2) J. Physiol. 237:E214-E223 (1979). With this technique, an antecuubital vein is cannulated in an antegrade manner to administer the infusates. A dorsal hand vein is cannulated in a retrograde fashion and kept in a warming device (70° C.) to facilitate venous sampling and provide arterialized venous blood After insertion of the catheters, [3-3H]-glucose is infused for at least 30 minutes before initiating the hormone infusion. At the onset of hormone infusion, a priming dose of either insulin or proinsulin is administered during the initial 10 minutes in a logarithmically decreasing manner to acutely raise the serum hormone level. The amount of insulin or proinsulin given during this initial 10 minute period is roughly twice that given during each subsequent 10 minute interval by a continuous hormone infusion The serum glucose is maintained between 80 and 90 mg/dl throughout the study period with a coefficient of variation of less than 5% by means of a variable rate of infusion of 20% dextrose. The overall glucose disposal rate is assessed isotopically for each 20 minute interval of the study.
Each subject underwent a total of 8 euglycemic glucose clamp studies, each performed on a separate day. Insulin infusion rates of 15, 40, 120, and 240 mU/M2/min were utilized to construct a dose response curve for insulin action. With this approach an attempt was made to achieve steady state insulin concentrations of 40 to 800 μU/ml (Table 1). Each subject was also studied with four different proinsulin infusions. […] Hepatic glucose output was quantitated in the basal state and during each clamp study using a primed continuous infusion of [3-3H]glucose. […] The dose response relationship for insulin and proinsulin mediated suppression of hepatic glucose output was determined by calculating the percent suppression of basal hepatic glucose output at each steady state hormone concentration obtained during the euglycemic clamp studies.

[6] = tested on: insulin-degrading proteases; conditions: subcutaneous injection site
[7] = five Type II subjects, 0.2 U/kg s.c.
HGO = tested on: HGO
Source text: For example, in non-insulin dependent diabetes mellitus (NIDDM), one of the major metabolic abnormalities that maintains the resultant hyperglycemic state is accelerated hepatic glucose production.

hepatic glucose output = experiment: Euglycemic glucose-clamp: suppression of hepatic glucose output; format: in vivo, human
Procedure: as §2, with “The amount of insulin or proinsulin given during this initial 10 minute period is roughly twice that given during each subsequent 10 minute interval by a continuous hormone infusion The serum glucose is maintained between 80 and 90 mg/dl throughout the study period with a coefficient of variation of less than 5% by means of a variable rate of infusion of 20% dextrose.” left out
Each subject underwent a total of 8 euglycemic glucose clamp studies, each performed on a separate day. […] Hepatic glucose output was quantitated in the basal state and during each clamp study using a primed continuous infusion of [3-3H]glucose. […] The dose response relationship for insulin and proinsulin mediated suppression of hepatic glucose output was determined by calculating the percent suppression of basal hepatic glucose output at each steady state hormone concentration obtained during the euglycemic clamp studies.

glucose disposal = experiment: Euglycemic glucose-clamp: glucose disposal rate; format: in vivo, human
Procedure: On one day, each subject received a 5.0 μg/M^2 /min (120 mU/M^2 /min) insulin infusion over a 6 hour period. […] Each proinsulin infusion was carried out for 300 minutes, with the quantitation of its biological effects based on measurements made during the 5th hour of each study. […]

[8] = tested on: hepatic glucose output (HGO); experiment: Kinetics of deactivation of effect on hepatic glucose output (HGO); format: in vivo, human
Source text: as §1

[9] = after stopping 5 hour infusion (human insulin 0.55, human proinsulin 2.75 μg/M2/min)
[10] = Study A (insulin 15 mU/M^2/min, proinsulin 2.75 μg/M^2/min), Mean ± SE

human proinsulin: human proinsulin, available by organic synthesis, isolation from human pancreas or recombinant DNA methodology
Plasma Glucose ([1]; subject two, total dose 20.0 I.U. (0.2 U/kg s.c.), 40 min after injection): 217 mg/dL
Plasma Glucose ([1]; subject two, total dose 20.0 I.U. (0.2 U/kg s.c.), 80 min after injection): 201 mg/dL
Plasma Glucose ([1]; subject two, total dose 20.0 I.U. (0.2 U/kg s.c.), 120 min after injection): 191 mg/dL
Plasma Glucose ([1]; subject two, total dose 20.0 I.U. (0.2 U/kg s.c.), 160 min after injection): 182 mg/dL
Plasma Glucose ([1]; subject two, total dose 20.0 I.U. (0.2 U/kg s.c.), 240 min after injection): 164 mg/dL
Plasma Glucose ([1]; subject two, total dose 20.0 I.U. (0.2 U/kg s.c.), 280 min after injection): 143 mg/dL
Plasma Glucose ([1]; subject two, total dose 20.0 I.U. (0.2 U/kg s.c.), 300 min after injection): 134 mg/dL
Plasma Glucose ([1]; subject two, total dose 20.0 I.U. (0.2 U/kg s.c.), 360 min after injection): 128 mg/dL
Plasma Glucose ([1]; subject two, total dose 20.0 I.U. (0.2 U/kg s.c.), 400 min after injection): 117 mg/dL
Plasma Glucose ([1]; subject two, total dose 20.0 I.U. (0.2 U/kg s.c.), 440 min after injection): 112 mg/dL
Plasma Glucose ([1]; subject two, total dose 20.0 I.U. (0.2 U/kg s.c.), 480 min after injection): 104 mg/dL
Plasma Glucose ([1]; subject two, total dose 20.0 I.U. (0.2 U/kg s.c.), 500 min after injection): 100 mg/dL
Plasma Glucose ([1]; subject, total dose 15.0 I.U. (0.2 U/kg s.c.), 0 min after injection): 332 mg/dL
Plasma Glucose ([1]; subject, total dose 15.0 I.U. (0.2 U/kg s.c.), 40 min after injection): 328 mg/dL
Plasma Glucose ([1]; subject, total dose 15.0 I.U. (0.2 U/kg s.c.), 80 min after injection): 308 mg/dL
Plasma Glucose ([1]; subject, total dose 15.0 I.U. (0.2 U/kg s.c.), 120 min after injection): 288 mg/dL
Plasma Glucose ([1]; subject, total dose 15.0 I.U. (0.2 U/kg s.c.), 160 min after injection): 272 mg/dL
Plasma Glucose ([1]; subject, total dose 15.0 I.U. (0.2 U/kg s.c.), 200 min after injection): 247 mg/dL
Plasma Glucose ([1]; subject, total dose 15.0 I.U. (0.2 U/kg s.c.), 240 min after injection): 210 mg/dL
Plasma Glucose ([1]; subject, total dose 15.0 I.U. (0.2 U/kg s.c.), 280 min after injection): 174 mg/dL
Plasma Glucose ([1]; subject, total dose 15.0 I.U. (0.2 U/kg s.c.), 360 min after injection): 94 mg/dL
Effect on elevated hepatic glucose production [2]: suppressed into the normal range
Time of maximum suppression of hepatic glucose production [2]: 264 ± 31 min
Minimum hepatic glucose production ([2]; basal 3.83±0.6): 1.21 ± 0.2 mg/kg/min
Decay of biologic effect to stimulate glucose disposal, more slowly than human insulin ([3]; after stopping 5 hour infusion): 2.2 times
t 1/2 of deactivation of effects on glucose disposal [3, 9]: 1.45 ± 0.233 h
Time needed to reach steady state biologic effects compared to human insulin ([3]; both stimulation of glucose disposal and inhibition of HGO): much slower
Time to steady state effect to stimulate glucose disposal ([3]; continuous infusion): 5 h
Time until glucose disposal rates returned to basal ([3]; following cessation of 2.75 μg/M2/min infusion): 160 min
Time by which hormone concentrations are below biologically effective values [4]: ≤ 90 minutes
Steady State Hormone Levels (Mean ± SEM) ([5]; infusion A: insulin 0.63, proinsulin 2.75 μg/M^2/min): 2.55 ± 0.16 pmol/mL
Steady State Hormone Levels (Mean ± SEM) ([5]; infusion B: insulin 1.67, proinsulin 7.5 μg/M^2/min): 6.24 ± 0.49 pmol/mL
Steady State Hormone Levels (Mean ± SEM) ([5]; infusion C: insulin 5.0, proinsulin 22.5 μg/M^2/min): 21.2 ± 1.4 pmol/mL
Steady State Hormone Levels (Mean ± SEM) ([5]; infusion D: insulin 10.0, proinsulin 45.0 μg/M^2/min): 40.0 ± 1.9 pmol/mL
Degradation by insulin-degrading proteases [6]: not degraded
Mean peak hormone blood level [7]: 6.8 pmol/mL
Time of mean peak hormone blood level [7]: 230 ± 33 min
Expected suppression of HGO in NIDDM subjects (HGO; circulating concentration approximately 1.5-2 pmol/ml): approximately 50%
Expected duration of adequate glycemic control (HGO; sustained level 1.5-2 pmol/ml for about 3 hours by CSII or single s.c. injection): 8 to 10 h
Suppression of Hepatic Glucose Output (%) (hepatic glucose output; [10]): 80 ± 6%
Serum hormone concentration required to achieve 90% suppression of hepatic glucose output (hepatic glucose output; healthy subjects, steady state, euglycemic clamp): 3.35 pmol/mL
Time to reach steady state rates of glucose disposal (glucose disposal; 5 subjects, insulin 5.0 μg/M^2/min over 6 h, proinsulin 22.5 μg/M^2/min over 8 h): ≤ 5 h
Glucose Disposal Rate (glucose disposal; [10]): 122 ± 11 mg/M^2/min
Time until a decline in effect to suppress HGO could be detected ([8]; after infusion stopped): 120 min
Time until HGO returned to baseline values, extrapolation of the curve ([8]; after stopping 5 hour infusion): > 6 h
t 1/2 of deactivation of effect to inhibit HGO [8, 9]: 3.83 ± 0.317 h
